This is an account of results in patent US20060167109A1, “Methods of reducing rhinovirus contagion and related compositions” (priority 2002, published 2006).

In data set [1] the test system is HRV3. Nature of the data set: Multiple rounds of replication. The format is cell-based, human rhinovirus. As to conditions: 2 μM added four hours post-attachment. Here is the method:
The next experiments were designed to answer the question as to whether the addition of pleconaril after the uncoating stage could affect the ability of progeny virions to initiate subsequent rounds of replication, i.e. reduce the infectivity of progeny virions. Cells were infected with HRV3 at a low MOI (0.01 pfu/cell) at room temperature. After removal of unattached virus, fresh medium was added and the cells were shifted to the higher temperature to allow uncoating to proceed. Four hours post-attachment, pleconaril or DMSO alone was added to the cultures, and plates were frozen at 12 hours (upon completion of a single cycle of replication) and 24 hours (upon completion of a second round of replication) post-infection. Virus yield from both rounds of replication was determined in the viral cytopathic effect assay.
HeLa cells in 6 well plates were infected with HRV3 at an MOI of 0.001 or 0.01 pfu/cell for 1 hour at room temperature in duplicate. The virus inoculum was then removed and the monolayers washed twice with DPBS. The cells were overlaid with 3 mL of M199 medium with 5% FBS and placed at 33° C. (HRV3). After 4 hrs, half of the wells received pleconaril to a final concentration of 2 μM in 0.5% DMSO, and half received DMSO alone. […] Virus yield was determined in the cytopathic effect assay after 2 cycles of chloroform extraction.

Data set [2] in a line: Rat tissue distribution studies. As to conditions: estimated. It is filed as in vivo. Here is the method:
A 400 mg dose of pleconaril maintains antiviral concentrations at or above the concentration that inhibits 90% of the protoype HRV serotypes (90% Minimal Inhibitory Concentration or mic90) for a significant portion of the dosing interval after the first dose of pleconaril. A nasal tissue to plasma concentration ratio of five was estimated for pleconaril from rat tissue distribution studies.

For another data set, the system named is 101 serotypes of HRVs. The data set is described as follows: Spectrum of activity in HRV cytopathic effect assay.
In the next data set the test system is HRV serotype 42. Nature of the data set: HRV cytopathic effect assay. The following applies: Human rhinovirus sp. The format is cell-based. Here is the method:
(§1) For sensitivity testing to pleconaril, the appropriate cells were seeded into 96 well plates at a concentration of 4×10^4/well. After an overnight incubation at 37° C., the medium was removed and the cells were infected with 150 μL of a dilution of virus previously titrated to give ≧85% lysis of the monolayer after 3 days of incubation. The plates were incubated for 1 hour at the appropriate temperature and then overlaid with 50 μL of medium containing serial 2-fold dilutions of pleconaril in 2% DMSO. The final DMSO concentration in the assay was always 0.5%. No virus and no pleconaril controls were included on each plate. All drug concentrations were run in quadruplicate. The plates were then incubated for 3 days at the appropriate temperature followed by processing as described above.
A general note: Damage to the host cells serves as the signal in cytopathic effect assays.

For another data set, the system named is HRV serotype 25. The data set is described as follows: HRV cytopathic effect assay. The following applies: Human rhinovirus sp. The format is cell-based. Here is the method:
as §1

In another data set the test system is HRV serotype 31. The data set is described as follows: HRV cytopathic effect assay. The following applies: Human rhinovirus sp. It is filed as cell-based. Here is the method:
as §1

The subject of a further data set is HRV serotype 70. The data set is described as follows: HRV cytopathic effect assay. The format is cell-based. The following applies: Human rhinovirus sp. Here is the method: as §1
The subject of the next data set is HRV serotype 96. Nature of the data set: HRV cytopathic effect assay. It is filed as cell-based. The following applies: Human rhinovirus sp. The method, then:
as §1

Another data set has as its system HRV serotype 78. The data set is described as follows: HRV cytopathic effect assay. It is filed as cell-based. As to conditions: Human rhinovirus sp. The method, then: as §1
Another data set deals with HRV serotype 57. The data set is described as follows: HRV cytopathic effect assay. It is filed as cell-based. The following applies: Human rhinovirus sp. The method, then:
as §1

A further data set concerns HRV serotype 83. The data set is described as follows: HRV cytopathic effect assay. It is filed as cell-based. The following applies: Human rhinovirus sp. The method, then: as §1
A further data set has as its system HRV serotype 61. Nature of the data set: HRV cytopathic effect assay. The format is cell-based. As to conditions: Human rhinovirus sp. Here is the method: as §1
Another data set deals with HRV serotype 64. Nature of the data set: HRV cytopathic effect assay. It is filed as cell-based. As to conditions: Human rhinovirus sp. The method, then: as §1
Data set [3] deals with HRV3. The data set is described as follows: Time of drug addition. It is filed as cell-based, human rhinovirus. The method, then: To determine the stage in the virus replication cycle that is affected by pleconaril, time of drug addition studies were conducted. Pleconaril was added to cells either during viral attachment or at various times thereafter. Viral replication was allowed to proceed for a single cycle of growth (10-12 hours), at which time the cells were lysed by a freeze-thaw cycle, residual pleconaril was removed by chloroform extraction, and virus yield was determined in the cytopathic effect assay. A 2 μM concentration of pleconaril inhibited greater than 90% of the yield of HRV3 from a single cycle of growth if present during the virus attachment period.
Twenty-four well plates (Costar 3524) of HeLa cells were infected in duplicate with 250 μL of HRV3 in M199 medium with 5% FBS at a multiplicity of infection (MOI) of approximately 1 PFU/cell for 1 hour at room temperature. During a treatment (the “−1 h” timepoint), one set of duplicate wells for each virus received 2 μM pleconaril, while the remaining wells received DMSO (0.5% final concentration). After attachment, the cells were washed twice with 1 mL of DPBS, and then overlaid with fresh medium. Pleconaril (2 μM final concentration) was added to the wells at the indicated times. The plates were incubated at 33° C. (HRV3) for 10 hours, at which time they were frozen at −80° C. […]

A short description of data set [4]: Clinical pharmacokinetics: food effect, linearity, renal excretion. The format is in vivo, human. The method, then:
Pleconaril was administered with food in all Phase II and III clinical studies conducted by Applicants.
Pleconaril has a volume of distribution (Vz/F) that is consistent with significant tissue distribution despite the fact that pleconaril is highly bound (>99%) to plasma protein. Pleconaril is a low systemic clearance drug. Renal clearance contributes insignificantly to the systemic clearance of pleconaril. Less than 1% of the dose is excreted unchanged as pleconaril in urine.

For the next data set, the system named is human plasma proteins. Nature of the data set: Plasma protein binding. The format is in vitro ADME.
The nature of data set [5]: Repeated dose pharmacokinetics, clinical dosing regimen. The format is in vivo, human. The following applies: 400 mg TID for 5 days. Here is the method: Plasma accumulation of pleconaril was modest (approximately two fold) when pleconaril was administered according to the clinical dosing regimen (400 mg TID for 5 days). The long terminal half-life had only a modest influence on pleconaril plasma concentration-time profiles for the clinical dosing regimen. The repeated dose pharmacokinetic profile of pleconaril was predictable from single dose data and, thus, the pharmacokinetic profile of pleconaril was time independent (FIG. 2).

Several values for one entry are separate records, joined by “and”; a condition that tells them apart may be missing. Equal entries are not always repeated.

Procedure for 101 serotypes of HRVs: HRV stocks were grown in HeLa (WIS) cells in 150 cm^2 flasks, frozen/thawed 3 times, aliquoted and stored frozen at −80° C. The virus inoculum to be used in the assay for each virus was determined as follows. HeLa (WIS) cells were seeded on 96-well tissue culture plates (Costar, 3598) at a density of 2.8×10^4 cells/well in M199 medium (Sigma) supplemented with 5% heat-inactivated newborn bovine serum. Twenty-four hours later, serial 0.5 log10 dilutions of each virus stock were plated in octuplicate onto the cells in complete M199 medium (5% heat-inactivated fetal bovine serum (FBS), 0.15 mM MgCl2, and 7.5 μg/mL diethylamino-dextran (DEAE-dextran)). The plates were incubated for 3 days at 33° C. in a humidified, 2.5% CO2 atmosphere, then fixed with 5% glutaraldehyde and stained with 0.1% crystal violet. After rinsing and drying, the optical density of the wells was read at a wavelength of 570 nm (OD570) on a Bio-Tek model EL-310 plate reader.

For orientation: IC50 means the concentration that gives 50% inhibition. One may read the inhibition as the share of the control response that was lost under treatment. `Cc1cc(CCCOc2c(C)cc(-c3noc(C(F)(F)F)n3)cc2C)on1` [pleconaril, 3-[3,5-dimethyl-4-[3-(3-methyl-5-isoxazolyl)propoxy]phenyl]-5-(trifluoromethyl)-1,2,4-oxadiazole]: the “yield of progeny virions from the first round of virus replication” value with HRV3 [1] (12 hours) is given as “little effect”. The “second round of replication” value in the data set with HRV3 [1] (24 hours) is reported as “completely prevented”. For the same compound, the “nasal tissue to plasma concentration ratio” value in [2] is “five”. In addition, in the data set with 101 serotypes of HRVs (Human rhinovirus sp., read-out: MIC50 (concentration inhibiting 50% of the HRV serotypes)), the MIC50 was ≤ 0.2 µM and ≤ 0.08 µg/mL. Also, the MIC80 with 101 serotypes of HRVs (Human rhinovirus sp., read-out: MIC80 (concentration inhibiting 80% of the HRV serotypes)) is ≤ 0.78 µM and ≤ 0.3 µg/mL. The MIC90 in the data set with 101 serotypes of HRVs (Human rhinovirus sp., read-out: MIC90 (concentration inhibiting 90% of the HRV serotypes)) was ≤ 4.3 µM and ≤ 1.6 µg/mL. The “HRVs whose replication was inhibited” value with 101 serotypes of HRVs (of 101 prototypic serotypes) is 93 of 101. The IC50 is more than 12.5 µM in the data set with HRV serotype 42; 100 ± 10 nM in the data set on HRV serotype 25; 130 ± 70 nM with HRV serotype 31; 300 ± 190 nM in the data set on HRV serotype 70; 90 ± 50 nM in the data set on HRV serotype 96; 80 ± 40 nM in the data set on HRV serotype 78. Besides, the IC50 turned out to be 170 ± 50 nM in the data set with HRV serotype 57, 20 ± 10 nM with HRV serotype 83, 210 ± 80 nM in the data set on HRV serotype 61 and 320 ± 240 nM in the data set with HRV serotype 64. The “reduction in virus yield” value in the data set with HRV3 [3] (2 μM, drug addition after attachment (0 hour timepoint)) is recorded as less than 1 log10. Also, the inhibition at 2 µM with HRV3 [3] (Human rhinovirus sp., HRV3, present during the virus attachment period, read-out: inhibition of the yield of HRV3 from a single cycle of growth) was more than 90%. For the same compound, the “pharmacokinetic profile, dose dependence” value in [4] (plasma concentration range exceeding the proposed regimen by approximately 2-fold) is “dose proportional and linear”. Further, the “dose excreted unchanged as pleconaril in urine” value in data set [4] (urine) was “Less than 1%”. For the same compound, the “increase of absorption when administered with food” value in [4] (with food) is listed as 3-4 fold. Also, the protein bound with human plasma proteins is reported as more than 99%. Further, the plasma accumulation entry in data set [5] is “approximately two”.
